The record followed here is patent US20060216756A1, “Method for evaluating oxidized protein in horny cell layer” (Shiseido Company Ltd., priority 2003, published 2006).

A value given as a limit tells only on which side of the number the result lay.

The subject of assay [1] is horny layer oxidized protein. As to the kind of experiment: Agent-induced inhibition of sodium hypochlorite-induced increase in horny layer oxidized protein (tape-stripped horny layer, fluorescein-5-thiosemicarbazide labeling). The assay is classed as biochemical, human. The conditions noted are these: abdomen tape horny layer, 0.2 mM sodium hypochlorite plus agent, 37° C. for 18 hours; concentration inhibiting increase to median between hypochlorite alone and water alone; read-out: 50% inhibition concentration. The protocol: Adhesive tape is attached to the skin, such as an unexposed part of the abdomen, of a healthy individual, and immediately stripped off for non-invasive sampling of the outer layer of the horny layer. The tape which was attached to the horny layer is incubated in an aqueous solution containing a mixture of the oxidizing agent and a fixed concentration of the candidate agent. […] The inhibiting effect of the agent on oxidized protein increase may also be evaluated based on the level of oxidized protein in the horny layer specimen obtained after simultaneously applying the oxidizing agent onto human skin.
(§1) Transparent adhesive tape was attached to the abdomen of a healthy individual and immediately stripped off, to non-invasively obtain the outer layer of the horny layer. The tape attached to the horny layer was incubated in an aqueous solution comprising a mixture of 0.2 mM sodium hypochlorite and a fixed concentration of the agent, at 37° C. for 18 hours. After incubation was complete, the mixture was thoroughly washed with phosphate-buffered saline (PBS) and then reacted with a 100 mM MES-Na buffer solution (pH 5.5) containing 20 μM fluorescein-5-thiosemicarbazide (Molecular Probes Co.) at room temperature for 1 hour. After completion of the reaction, thorough washing was carried out with phosphate-buffered saline (PBS) and a fluorescent microscope was used for observation.

Assay [2] deals with horny layer oxidized protein. The assay can be described thus: Increase in horny layer oxidized protein due to aldehyde (tape-stripped horny layer). The format is biochemical, human. Conditions: 1 mM aqueous acrolein, room temperature, 18 hours, abdomen tape horny layer. The procedure:
as §1, with “in a 1 mM” for “in an”, “aqueous acrolein” for “aqueous”, “solution” for “solution comprising a mixture of 0.2 mM sodium hypochlorite and a fixed concentration of the agent,”, “at room temperature” for “at 37° C.”

The subject of assay [3] is horny layer oxidized protein. As to the kind of experiment: Increase in horny layer oxidized protein due to unsaturated fatty acid coated on forearm. The format is in vivo, human. The conditions noted are these: 40 μL/cm^2 of 30% linoleic acid-ethanol solution, 3 consecutive days. The procedure:
(§2) After coating the forearm of a healthy individual with 40 μL/cm^2 of a 30% linoleic acid-ethanol solution for 3 consecutive days, transparent adhesive tape was attached to the irradiated site and immediately stripped off, to non-invasively obtain the outer layer of the horny layer. The tape attached to the horny layer was reacted with a 100 mM MES-Na buffer solution (pH 5.5) containing 20 μM fluorescein-5-thiosemicarbazide (Molecular Probes Co.) at room temperature for 1 hour. After completion of the reaction, thorough washing was carried out with phosphate-buffered saline (PBS), and then a fluorescent microscope was used for observation.

The subject of assay [4] is horny layer oxidized protein. The assay can be described thus: Increase in horny layer oxidized protein due to sodium hypochlorite and unsaturated fatty acids (tape-stripped horny layer). The assay is classed as biochemical, human. The conditions noted are these: 0.2 mM aqueous sodium hypochlorite, 37° C., 18 hours, abdomen tape horny layer. The procedure: Transparent adhesive tape was attached to the abdomen of a healthy individual and immediately stripped off, to non-invasively obtain the outer layer of the horny layer. The tape attached to the horny layer was coated with 200 μg/cm^2 of unsaturated fatty acids (linoleic acid, oleic acid and palmitoleic acid), and then incubated in a 0.2 mM aqueous sodium hypochlorite solution at 37° C. for 18 hours. After incubation was complete, the mixture was thoroughly washed with phosphate-buffered saline (PBS) and then reacted with a 100 mM MES-Na buffer solution (pH 5.5) containing 20 μM fluorescein-5-thiosemicarbazide (Molecular Probes Co.) at room temperature for 1 hour. After completion of the reaction, thorough washing was carried out with phosphate-buffered saline (PBS) and a fluorescent microscope was used for observation.

For assay [5], the system named is horny layer oxidized protein. The assay can be described thus: Increase in horny layer oxidized protein due to sodium hypochlorite coated on forearm. Conditions: 2 μL/cm^2 of 20 mM aqueous solution, 5 consecutive days. The format is in vivo, human. The protocol:
as §2, with “2” for “40”, “20 mM aqueous sodium hypochlorite” for “30% linoleic acid-ethanol”, “5” for “3”, “attached” for “attached to the irradiated site”

On to `NCCS(=O)O` [2-Aminoethanesulfinic acid], for which, in assay [1], the IC50 came to 86 µM.
Still for that read-out and setting: under `NCCS(=O)(O)=S` [2-Aminoethanethiosulfonic acid] stands 63 µM.
Consider `O=C1O[C@H]([C@@H](O)CO)C(O)=C1O[C@H]1O[C@H](CO)[C@@H](O)[C@H](O)[C@H]1O` [2-O-α-D-Glucopyranosyl-L-ascorbic acid], for which, in assay [1], the IC50 is 190 µM.
Regarding `CCOC1=C(O)C(=O)O[C@@H]1[C@@H](O)CO` [3-O-Ethylascorbic acid], the IC50 in assay [1] worked out at 140 µM.
On to `O=C1O[C@H]([C@@H](O)CO)C(O)=C1O` [Ascorbic acid], for which, in assay [1], the IC50 amounted to 210 µM.
In the case of `N[C@@H](CCC(=O)N[C@@H](CS)C(=O)NCC(=O)O)C(=O)O` [Glutathione], the IC50 in assay [1] was 8 µM.
Still for that read-out and setting: in the case of `O=C1O[C@H]([C@@H](O)CO)C(O)=C1OP(=O)(O)O` [Magnesium ascorbate phosphate ester] it was less than 125 µM; in that of `Cc1c(C)c2c(c(C)c1OP(=O)(O)OC1=C(O)C(C(O)CO)OC1=O)CCC(C)(CCCC(C)CCCC(C)CCCC(C)C)O2` [Potassium α-tocopherol-2-L-ascorbate phosphate diester], less than 125 µM; in that of `O=S(O)S(=O)(=O)O` [Sodium pyrosulfite], less than 125 µM.
On to `C=CC=O` [acrolein], for which the “change in oxidized protein after incubation with acrolein” value in assay [2] was “increase in oxidized protein”.
As for `CCCCC/C=C\C/C=C\CCCCCCCC(=O)O` [linoleic acid], the “change in oxidized protein after coating skin with linoleic acid” value in assay [3] was “increase in oxidized protein”.
On to `OCl` [sodium hypochlorite], for which the “change in oxidized protein after incubation with sodium hypochlorite, compared to incubation with water” value in assay [4] was “increase in oxidized protein”. The “change in oxidized protein after coating skin with sodium hypochlorite” value in assay [5] is listed as “increase in oxidized protein”.
`Cc1c(C)c2c(c(C)c1O)CC[C@@](C)(CCC[C@H](C)CCC[C@H](C)CCCC(C)C)O2` [α-Tocopherol]: the IC50 in assay [1] was determined as 220 µM.
